Assay results taken from US20200113852A1, “METHODS OF PATIENT SELECTION AND TREATING TRXR- OR PRDX-OVEREXPRESSED CANCERS” (TRIACT THERAPEUTICS, INC., priority 2017, published 2020).
Read-outs that look alike come from different tables or passages of the source.

Tests used:
HCT116 cells = experiment: Cytotoxicity assay (WST-1 cell viability); format: cell-based, human; conditions: for cytotoxicity: HCT116 without GSH depletion; for IC50: Homo sapiens
Protocol: Cell viability following drug treatments was assessed using WST-1 cell proliferation assay (Roche). Briefly, cells were plated into 96-well plates with 8,000 (HCT116) or 20,000 (MDA-MB-453) cells per well and allowed to attach overnight. Cells were then preincubated for 5 h in the presence or absence of 1 mM BSO. […] After 3 h of incubation at 37° C., the amount of formazan dye was quantified by measuring the optical density at 450 nm with a scanning multiwell spectrophotometer (PerkinElmer).

rat liver TrxR = rat liver TrxR (Rattus norvegicus, UniProt O89049); experiment: Electron paramagnetic resonance, DEPMPO spin trapping; conditions: 100 μM Iniparib, NADPH, aerobic
Protocol: Computer simulations of the spectra were performed using the program written by Rockenbauer and Korecz (25). […] Then the reaction mixture was transferred by aspiration into a gas permeable PTFE tubing (Extruded Sub-Lite-Wall®, inside diameter: 0.635 mm, wall thickness: 0.051 mm, Zeus Industrial Products Ltd., Ireland). The tubing was folded twice in a W-shape and inserted into a 4-mm EPR quartz tube for EPR analysis. […] To confirm the involvement of superoxide in the appearance of the EPR signal, 100 units of superoxide dismutase (SOD) were added to the incubation prior to TrxR addition. For anaerobic experiments, the reaction mixture was immediately transferred into the gas permeable tubing and nitrogen gas was flushed through a septum cap in the sealed EPR quartz tube during the whole experiment.

MDA-MB-453 cells = experiment: Cytotoxicity assay (WST-1 cell viability); conditions: for IC50: Homo sapiens
Protocol: (§1) Cell viability following drug treatments was assessed using WST-1 cell proliferation assay (Roche) Briefly, cells were plated into 96-well plates with 8,000 (HCT116) or 20,000 (MDA-MB-453) cells per well and allowed to attach overnight. Cells were then preincubated for 5 h in the presence or absence of 1 mM BSO. […] After 3 h of incubation at 37° C., the amount of formazan dye was quantified by measuring the optical density at 450 nm with a scanning multiwell spectrophotometer (PerkinElmer).
as §1, with “(Roche).” for “(Roche)”

rat liver TrxR, sequence (O89049 whole entry): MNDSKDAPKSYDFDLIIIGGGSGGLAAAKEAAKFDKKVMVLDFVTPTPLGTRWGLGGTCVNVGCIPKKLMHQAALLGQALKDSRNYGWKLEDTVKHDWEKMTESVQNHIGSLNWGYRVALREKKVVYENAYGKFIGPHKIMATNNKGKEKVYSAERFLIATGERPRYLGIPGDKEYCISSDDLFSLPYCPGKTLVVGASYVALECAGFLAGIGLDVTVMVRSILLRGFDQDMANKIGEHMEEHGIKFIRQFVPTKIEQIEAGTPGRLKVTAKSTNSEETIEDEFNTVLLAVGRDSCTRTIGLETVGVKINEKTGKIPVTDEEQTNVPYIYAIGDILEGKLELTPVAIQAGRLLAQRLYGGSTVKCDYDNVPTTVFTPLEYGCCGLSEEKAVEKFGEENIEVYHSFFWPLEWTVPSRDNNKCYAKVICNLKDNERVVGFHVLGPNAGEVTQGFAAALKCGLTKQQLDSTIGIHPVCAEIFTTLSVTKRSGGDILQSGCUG

Question: For `NC(=O)c1ccc(I)c([N+](=O)[O-])c1` [Iniparib, 4-iodo-3-nitrobenzamide], which cytotoxicity (HCT116 cells; after 24 h, concentrations up to 100 μM) is on record?
Answer: marginal cytotoxicity

Question: What about the cytotoxicity (HCT116 cells; up to 100 μM of Iniparib) of the same molecule?
Answer: no cytotoxicity was detected

Question: And the IC50 (HCT116 cells; HCT-116, 24 h, read-out: IC50 (cytotoxicity), HCT116 cells not depleted of GSH, transitory or 24 h exposure)?
Answer: > 100 µM

Question: What about the IC50 (HCT116 cells; HCT-116, read-out: IC50 (cytotoxicity), HCT116, GSH depletion (Example 2)) of the same molecule?
Answer: 8.2 µM

Question: What about the IC50 (HCT116 cells; HCT-116, read-out: IC50 (cytotoxicity), HCT116 after GSH depletion with BSO (Example 1)) of the same molecule?
Answer: 8.4 ± 0.5 µM

Question: What about the “DEPMPO/HOO• adduct signal” value (rat liver TrxR) of the same molecule?
Answer: five-fold

Question: What about the “DEPMPO/HO• adduct signal” value (rat liver TrxR) of the same molecule?
Answer: doubled

Question: What about the IC50 (MDA-MB-453 cells; MDA-MB-453, read-out: IC50 (cytotoxicity), MDA-MB-453, GSH depletion (Example 2)) of the same molecule?
Answer: 16.2 µM

Question: What about the IC50 (MDA-MB-453 cells; MDA-MB-453, read-out: IC50 (cytotoxicity), MDA-MB-453, absence of BSO (Example 2)) of the same molecule?
Answer: 85 µM

Question: What about the IC50 (MDA-MB-453 cells; MDA-MB-453, read-out: IC50 (cytotoxicity), MDA-MB-453 after GSH depletion with BSO (Example 1)) of the same molecule?
Answer: 17.8 ± 2.9 µM

Question: And the IC50 (MDA-MB-453 cells; MDA-MB-453, read-out: IC50 (cytotoxicity), MDA-MB-453 without BSO pre-treatment, 48 h (Example 1))?
Answer: 84 ± 6.5 µM

Question: And the “augmentation of cytotoxicity by GSH depletion” value (MDA-MB-453 cells; MDA-MB-453, BSO vs no BSO)?
Answer: 4 fold
